Reference: patent EP3674287A1, “COCRYSTALS OF (R)-BACLOFEN” (Zaklady Farmaceutyczne "Polpharma" S.A., priority 2018, dated 2020)

Assays:
[1] = Preliminary solubility study of (R)-Baclofen in 18 solvents; assay type: physicochemical; conditions: for Solubility: 40 volume
Description: A preliminary study of (R)-Baclofen solubility was performed using different solvents (18 solvents) in order to design a proper experimental space to obtain or detect a new crystalline form.
Solubility test were performed with 25 mg of (R)-Baclofen in a test tube with screw cap and magnetic stirring. The solvent was added in small portions of 2 volumes (mg/ml) at room temperature up to 40 volumes. After each addition, the sample was stirred for 2-5 minutes.

[2] = pKa of the coformer; cited from earlier work
[3] = Solubility of prior-art crystal forms in water (EP2345634 B1); assay type: physicochemical; conditions: 25°C
[4] = Crystalline stability test under accelerated ICH storage conditions (XRPD); assay type: physicochemical
Description: The expression "crystalline stability" means that no conversion into another crystalline form occurs, as determined by XRPD. […]
Crystalline stability study of the new cocrystals found during the screening was performed under accelerated ICH storage conditions (40°C, 75±5 % RH) for 1 week and 4 weeks. The results are summarized in the Table 16: Table 16: Crystalline stability of cocrystals

[5] = Chemical stability study under accelerated ICH storage conditions (HPLC); assay type: physicochemical; conditions: for Chemical stability (HPLC): 40°C/ 75 ± 5 % RH, during 0, 1, 2 and 4 weeks; for Impurity CA1 (HPLC % a/a): RRT 0.48; for Impurity CA1 (HPLC % a/a) / Impurity A+Impurity CA2 (HPLC % a/a) / Impurity A (HPLC % a/a) / Impurity SA1 (HPLC % a/a) / Impurity B + Impurity FA1 (HPLC % a/a): 40 °C / 75 ± 5 % RH; for Impurity A+Impurity CA2 (HPLC % a/a) / Impurity A (HPLC % a/a): RRT 0.7; for Impurity SA1 (HPLC % a/a): RRT 0.33; for Impurity B + Impurity FA1 (HPLC % a/a): RRT 0.3
Description: Sample concentration : 5mg/5ml in ACN/H2O-0.1 methane sulfonic acid 20:80 Injection Volume: 10 µl; Run Time: 20.0 minutes; Column: […]100, 4.6x150 mm;100A,5µm; Mobile phase: gradient: ACN/H2O- 0.1 methane sulfonic acid 20:80 / ACN (95:5) -(75:25) - (95:5) Column temp.: 40°C; and Flow rate: 1 ml/min.
Samples were taken periodically (0 (start), after 1, 2, and 4 weeks) and analyzed by HPLC.
Retention time of (R)-Baclofen under conditions described in the Section "Measuring instruments, conditions and protocols" above, is about 13 min and the relative retention times (RRT) of known impurities are given below.

Coformer pKa and ΔpKa = assay type: physicochemical; conditions: (R)-Baclofen versus coformer

## NC[C@H](CC(=O)O)c1ccc(Cl)cc1 [(R)-Baclofen, (3R)-4-amino-3-(4-chlorophenyl)butanoic acid]
[1]; Acetone, reflux
  Solubility: Insoluble
[1]; Acetonitrile, reflux
  Solubility: Insoluble
[1]; DMF, reflux
  Solubility: Soluble
[1]; DMSO, reflux
  Solubility: Soluble
[1]; Dichloromethane, reflux
  Solubility: Insoluble
[1]; Dioxane, reflux
  Solubility: Insoluble
[1]; Ethanol, reflux
  Solubility: Insoluble
[1]; Ethyl acetate, reflux
  Solubility: Insoluble
[1]; Heptane, reflux
  Solubility: Insoluble
[1]; Isobutyl acetate, reflux
  Solubility: Insoluble
[1]; Isopropyl alcohol, reflux
  Solubility: Insoluble
[1]; Methanol, reflux
  Solubility: Insoluble
[1]; Methyl isobutyl ketone, reflux
  Solubility: Insoluble
[1]; THF, reflux
  Solubility: Insoluble
[1]; Tert-butyl methyl ether, reflux
  Solubility: Insoluble
[1]; Toluene, reflux
  Solubility: Insoluble
[1]; Water, reflux
  Solubility: soluble
[1]; cyclohexane, reflux
  Solubility: Insoluble
[1]; overall conclusion of the solvent study
  solubility in water and majority of commonly used organic solvents: low solubility
[1]; the other tested solvents (samples 4-18), even at reflux temperature
  Solubility: insoluble

## O=C(O)/C=C/c1ccccc1 [Cinnamic acid, (2E)-3-phenylprop-2-enoic acid]
[2]
  Coformer [pKa]: Cinnamic acid [pKa 4.10]

## NC[C@H](CC(=O)O)c1ccc(Cl)cc1 [Crystal Form B, (3R)-4-amino-3-(4-chlorophenyl)butanoic acid]
[3]
  solubility according to USP solubility test (descriptive term): sparingly soluble

## COc1cc(/C=C/C(=O)O)ccc1O [Ferulic acid, (E)-3-(4-hydroxy-3-methoxy-phenyl)prop-2-enoic acid]
[2]
  Coformer [pKa]: Ferulic acid [pKa 4.26]

## NCC(CC(=O)O)c1ccc(Cl)cc1.O=C(O)C=Cc1ccccc1 (stereo not shown) [Form III]
[4]
  Crystalline stability study 40 °C/ 75 ± 5 % RH After 1 week: Stable
  Crystalline stability study 40 °C/ 75 ± 5 % RH After 4 weeks: Stable
[4]; listed as (R)-Baclofen-cinnamic acid cocrystal Form III
  Crystalline stability study 40 °C/ 75 ± 5 % RH After 4 weeks: stable
[5]
  Chemical stability (HPLC): stable
[5]; week 0
  Impurity CA1 (HPLC % a/a): 0.03 % a/a
[5]; week 1
  Impurity CA1 (HPLC % a/a): 0.03 % a/a
[5]; week 2
  Impurity CA1 (HPLC % a/a): 0.03 % a/a
[5]; week 4
  Impurity CA1 (HPLC % a/a): 0.03 % a/a
[5]; week 0, listed as Cocrystal Form III
  Impurity A+Impurity CA2 (HPLC % a/a): 0.04 % a/a
[5]; week 1, listed as Cocrystal Form III
  Impurity A+Impurity CA2 (HPLC % a/a): 0.04 % a/a
[5]; week 2, listed as Cocrystal Form III
  Impurity A+Impurity CA2 (HPLC % a/a): 0.04 % a/a
[5]; week 4, listed as Cocrystal Form III
  Impurity A+Impurity CA2 (HPLC % a/a): 0.04 % a/a
Coformer pKa and ΔpKa
  ΔpKa: -0.60

## NCC(CC(=O)O)c1ccc(Cl)cc1.NCC(CC(=O)O)c1ccc(Cl)cc1.O=C(O)c1ccccc1 (stereo not shown) [Form II]
[4]
  Crystalline stability study 40 °C/ 75 ± 5 % RH After 1 week: stable
  Crystalline stability study 40 °C/ 75 ± 5 % RH After 4 weeks: Stable
[4]; listed as (R)-Baclofen-benzoic acid cocrystal Form II
  Crystalline stability study 40 °C/ 75 ± 5 % RH After 4 weeks: stable
[5]
  Chemical stability (HPLC): stable
[5]; week 0
  Impurity A (HPLC % a/a): 0.02 % a/a
[5]; week 1
  Impurity A (HPLC % a/a): 0.02 % a/a
[5]; week 2
  Impurity A (HPLC % a/a): 0.02 % a/a
[5]; week 4
  Impurity A (HPLC % a/a): 0.02 % a/a
Coformer pKa and ΔpKa
  ΔpKa: -0.3

## NCC(CC(=O)O)c1ccc(Cl)cc1.O=C(O)C=Cc1ccccc1 (stereo not shown) [Form IV]
[4]; listed as (R)-Baclofen-cinnamic acid cocrystal Form IV
  Crystalline stability study 40 °C/ 75 ± 5 % RH After 4 weeks: stable
[5]; week 0, listed as Cocrystal Form IV
  Impurity A+Impurity CA2 (HPLC % a/a): 0.03 % a/a
[5]; week 1, listed as Cocrystal Form IV
  Impurity A+Impurity CA2 (HPLC % a/a): 0.03 % a/a
[5]; week 2, listed as Cocrystal Form IV
  Impurity A+Impurity CA2 (HPLC % a/a): 0.03 % a/a
[5]; week 4, listed as Cocrystal Form IV
  Impurity A+Impurity CA2 (HPLC % a/a): 0.03 % a/a

## COc1cc(C=O)ccc1O.NCC(CC(=O)O)c1ccc(Cl)cc1.NCC(CC(=O)O)c1ccc(Cl)cc1 (stereo not shown) [Form IX]
[4]
  Crystalline stability study 40 °C/ 75 ± 5 % RH After 1 week: Unstable
  Crystalline stability study 40 °C/ 75 ± 5 % RH After 4 weeks: Unstable
Coformer pKa and ΔpKa
  ΔpKa: -3.70

## NCC(CC(=O)O)c1ccc(Cl)cc1.O=C(O)c1ccccc1O (stereo not shown) [Form VIII]
[4]
  Crystalline stability study 40 °C/ 75 ± 5 % RH After 1 week: Stable
  Crystalline stability study 40 °C/ 75 ± 5 % RH After 4 weeks: Stable
[4]; listed as (R)-Baclofen-salicylic acid cocrystal Form VIII
  Crystalline stability study 40 °C/ 75 ± 5 % RH After 4 weeks: stable
[5]
  Chemical stability (HPLC): stable
[5]; week 0
  Impurity SA1 (HPLC % a/a): 0.05 % a/a
  Impurity A (HPLC % a/a): 0.04 % a/a
[5]; week 1
  Impurity SA1 (HPLC % a/a): 0.05 % a/a
  Impurity A (HPLC % a/a): 0.04 % a/a
[5]; week 2
  Impurity SA1 (HPLC % a/a): 0.05 % a/a
  Impurity A (HPLC % a/a): 0.04 % a/a
[5]; week 4
  Impurity SA1 (HPLC % a/a): 0.05 % a/a
  Impurity A (HPLC % a/a): 0.04 % a/a
Coformer pKa and ΔpKa
  ΔpKa: 0.83

## NCC(CC(=O)O)c1ccc(Cl)cc1.NCC(CC(=O)O)c1ccc(Cl)cc1.O=C(O)C=CC(=O)O (stereo not shown) [Form VII]
[4]
  Crystalline stability study 40 °C/ 75 ± 5 % RH After 1 week: Unstable
  Crystalline stability study 40 °C/ 75 ± 5 % RH After 4 weeks: Unstable
Coformer pKa and ΔpKa
  ΔpKa: 0.77

## COc1cc(C=CC(=O)O)ccc1O.NCC(CC(=O)O)c1ccc(Cl)cc1 [Form XII]
[4]
  Crystalline stability study 40 °C/ 75 ± 5 % RH After 1 week: Stable
  Crystalline stability study 40 °C/ 75 ± 5 % RH After 4 weeks: Stable
[4]; listed as (R)-Baclofen-ferulic acid cocrystal Form XII
  Crystalline stability study 40 °C/ 75 ± 5 % RH After 4 weeks: stable
[5]
  Chemical stability (HPLC): stable
[5]; Form XII table, week 0
  Impurity A+Impurity CA2 (HPLC % a/a): 0.05 % a/a
[5]; Form XII table, week 1
  Impurity A+Impurity CA2 (HPLC % a/a): 0.04 % a/a
[5]; Form XII table, week 2
  Impurity A+Impurity CA2 (HPLC % a/a): 0.05 % a/a
[5]; Form XII table, week 4
  Impurity A+Impurity CA2 (HPLC % a/a): 0.05 % a/a
[5]; week 0
  Impurity B + Impurity FA1 (HPLC % a/a): 0.07 % a/a
[5]; week 1
  Impurity B + Impurity FA1 (HPLC % a/a): 0.07 % a/a
[5]; week 2
  Impurity B + Impurity FA1 (HPLC % a/a): 0.08 % a/a
[5]; week 4
  Impurity B + Impurity FA1 (HPLC % a/a): 0.07 % a/a

## COc1cc(C=O)ccc1O [Vanillin]
[2]
  Coformer [pKa]: Vanillin [pKa 7.5]
